{
  "source": "patent US20250041367A1",
  "about": "“BACTERIOPHAGES AND USE THEREOF FOR THE TREATMENT OR PREVENTION OF INFECTION CAUSED BY E. COLI” (Purdue Research Foundation, priority 2023, published 2025)",
  "key": {"[1]": {"assay": "Phage release from microcapsules in SIF after SGF", "format": "physicochemical", "settings": "encapsulated phage; for phages released from their microcapsules: 1 hour SGF then 1 hour in SIF; for concentration of released phages: 1 hour SGF then 1 hour of incubation in SIF", "protocol": "The extent to which phages were released from microcapsules in the intestinal environment was investigated by incubating encapsulated phages first in SGF and then in SIF. 0.5 g of microencapsulated phages (microcapsules) was added to 4.5 mL SGF in duplicate tube sets and incubated at 41° C. for 1 hour with shaking. SGF was then carefully removed via pipetting and microcapsules were combined with either 4.5 mL of SIF or 4.5 mL 1×PBS and incubated at 41° C. with shaking. Aliquots (100 μL) were collected from each sample at 1, 2, and 3 hours following exposure to SIF. The concentrations of released phages in these aliquots were determined using standard plaque assays with phages' respective host APEC serotypes. The experiment was conducted in triplicate with each phage type."}, "[2]": {"assay": "Encapsulation efficiency in sodium alginate microcapsules (plaque assay)", "format": "physicochemical", "design": "Pre-encapsulation phage concentration / Concentration of phages in microcapsules: unit not given here", "settings": "for Pre-encapsulation phage concentration: before encapsulation; for Pre-encapsulation phage concentration / Concentration of phages in microcapsules: plaque assay; for Encapsulation efficiency: encapsulated / pre-encapsulation phage concentration; for Concentration of phages in microcapsules: sodium alginate microcapsules dissolved", "protocol": "Bacteriophages were microencapsulated within sodium alginate microcapsules as well-known in the art with some modifications (Krasaekoopt et al., 2004, International Dairy Journal, 14 (8), 737-743). In short, sodium alginate (4 g) was mixed with 400 mL of a bacteriophage filtrate to make a 1% (w/v) suspension. This suspension was allowed to gel at room temperature for 4 hours and was then processed through a Buchi Encapsulator-B395 set at 200 Hz (frequency) and 1000V (electrode) with an aperture of 0.3 mm. The resulting microcapsules were collected in a beaker containing a hardening solution (100 mM CaCl2)) with continuous stirring to avoid clumping of microcapsules. Microcapsules were allowed to sit in the 100 mM CaCl2) solution to harden for 30 minutes and were then washed three times with SM buffer. Washed microcapsules were stored in SM buffer in 50 ml conical tubes at 4° C. until further use. Each of the six phage types was individually microencapsulated in this manner.\nTo assess the efficiency of microencapsulation, the concentrations of microencapsulated phages were compared to pre-encapsulation concentrations as well-known in the art (Yongsheng et al., 2008, Applied and Environmental Microbiology, 74 (15), 4799). To determine bacteriophage concentrations in microcapsules, microcapsules (0.5 g) were dried by contact with filter paper and then dissolved in 4.5 mL of dissolving solution (50 mM sodium citrate, 0.2M sodium bicarbonate, and 50 mM Tris-HCl; pH 7.5). Bacteriophage concentrations were then quantified by standard plaque assay as described previously. Encapsulation efficiency (EE %) was calculated as:\nEE %=encapsulated phage concentration/pre-encapsulation phage concentration"}, "[3]": {"system": "E. coli serotype O2:H6 (APEC)", "assay": "Host range spot assay", "format": "cell-based, Escherichia coli", "settings": "E. coli serotype O2:H6, scale 0-3", "protocol": "The host range of each bacteriophage type was determined by performing spot assays using each of the ten distinct APEC serotypes mentioned above. Spot assays were performed as known in the art (Barrow et al., 1998, Clinical and Diagnostic Laboratory Immunology, 5 (3), 294-298). 100 μL aliquots of log-phase bacterial cultures were combined with 67.5 μL 1M CaCl2) and 4 mL LB overlay, mixed briefly, and poured over LB agar plates. Once the overlay had solidified, 5 μL aliquots of individual phage types were applied (i.e., spotted) onto the plates, and plates were incubated at 37° C. overnight. Plates were assessed for clearings the following day and the degree of lysis was measured using a four-point scale in which 0 indicated no lysis, 1.0 indicated some lysis, 2.0 indicated moderate lysis, and 3 indicated complete lysis. Spot assays were conducted in triplicate for each phage and APEC strain."}, "host APEC E. coli O6:H31": {"system": "host APEC E. coli O6:H31", "assay": "Lytic capacity of individual phages in liquid media (OD600)", "format": "cell-based, Escherichia coli", "settings": "for concentration of APEC (OD600) versus untreated APEC cultures: 2, 3, and 4 hours post-treatment; for OD600 reading of phage-treated APEC culture: after 1 hour of incubation, MOI 10, 37° C., untreated AHP host OD600=0.497", "protocol": "(§1) Individual APEC strains (100 μL) were inoculated into 15 mL LB media in separate tubes (two tubes per strain) and incubated at 37° C. in a shaking incubator. Once the bacterial cultures reached an OD600 0.18-0.22, the individual bacteriophage types (MOI=10) were added to one tube from the pair of tubes inoculated with their respective host APEC strain. The other tubes of bacterial culture were left untreated and served as negative controls. Bacterial growth was assessed by measuring absorbance (OD600) in all tubes every hour for 4 hours. The experiment was repeated three times.\n(§2) The six APEC strains were individually inoculated into LB broth and incubated at 37° C. until they reached log-phase growth. Phages were added to the log-phase culture of their APEC host at an MOI of 10, and subsequent bacterial concentrations were determined by measuring the absorbance (OD600) of the culture at 1, 2, 3, and 4 hours post-phage application. One flask containing only bacterial culture was included as a negative control. Additional flasks containing both bacterial cultures and antibiotics (specifically, gentamycin sulfate, kanamycin sulfate, nalidixic acid, or chloramphenicol) at their respective minimum inhibitory concentrations (National Antibiotic Resistance Monitoring System (NARMS) 2019, antibiotics tested by NARMS) were included as positive controls. These lytic capacity experiments were conducted in triplicate for each of the phage types and their respective host APEC strains."}, "[4]": {"assay": "Phage stability in simulated intestinal fluid (SIF)", "format": "physicochemical", "settings": "unencapsulated phage, SIF pH 7, 41° C., 1, 2, and 3 hours", "protocol": "To assess phage stability in intestinal fluids, 0.5 mL of unencapsulated phages were added to 4.5 mL of simulated intestinal fluid (SIF; 0.1% (w/v) bile salt and 0.4% (w/v) pancreatin in 50 mM KH2PO4; pH 7) and incubated at 41° C. As a negative control, 0.5 mL of unencapsulated phages were added to 4.5 mL of 1×PBS and incubated at 41° C. Aliquots (100 μL) were collected from each sample after 1, 2, and 3 hours of exposure to SIF. These aliquots were serially diluted and phage concentrations were measured by standard plaque assay as described above. The experiment was conducted in triplicate for each phage type. Concentrations of viable phages after exposure to SIF or PBS at a given time point were then compared."}, "host APEC E. coli O2:H4": {"system": "host APEC E. coli O2:H4", "assay": "Lytic capacity of individual phages in liquid media (OD600)", "format": "cell-based, Escherichia coli", "settings": "for OD600 reading of phage-treated APEC culture: after 1 hour of incubation, MOI 10, 37° C., untreated host OD600=0.454", "protocol": "as §1, §2"}, "[5]": {"settings": "1, 2, 3, and 4 hours post-treatment, MOI 10, P<0.05"}},
  "data": [
    {"substance": "Escherichia phage vB_Eco_AHC", "values": [
      {"measurement": "phages released from their microcapsules", "setting": "[1]", "value": 95.8, "unit": "%"},
      {"measurement": "concentration of released phages", "setting": "[1]", "value": 7.99, "unit": "log10 PFU/mL"},
      {"measurement": "Pre-encapsulation phage concentration", "setting": "[2]", "value": "8.9 ± 0.1"},
      {"measurement": "Encapsulation efficiency", "setting": "[2]", "value": 94.4, "unit": "%"},
      {"measurement": "Concentration of phages in microcapsules", "setting": "[2]", "value": "8.4 ± 0.2"},
      {"measurement": "degree of lysis", "setting": "[3]", "value": 2.0},
      {"measurement": "concentration of APEC (OD600) versus untreated APEC cultures", "setting": "host APEC E. coli O6:H31; MOI 10, P<0.05", "value": "Significantly lower"},
      {"measurement": "OD600 reading of phage-treated APEC culture", "setting": "host APEC E. coli O6:H31", "value": "did not significantly differ"}
    ]},
    {"substance": "Escherichia phage vB_Eco_AHP", "values": [
      {"measurement": "phages released from their microcapsules", "setting": "[1]", "value": 97.4, "unit": "%"},
      {"measurement": "concentration of released phages", "setting": "[1]", "value": 9.14, "unit": "log10 PFU/mL"},
      {"measurement": "Pre-encapsulation phage concentration", "setting": "[2]", "value": "9.6 ± 0.1"},
      {"measurement": "Encapsulation efficiency", "setting": "[2]", "value": 97.9, "unit": "%"},
      {"measurement": "Concentration of phages in microcapsules", "setting": "[2]", "value": "9.4 ± 0.1"},
      {"measurement": "degree of lysis", "setting": "[3]", "value": 2.7},
      {"measurement": "concentration of APEC host versus APEC cultures incubated without phages", "setting": "host APEC E. coli O6:H31; [5]", "value": "significantly lower"},
      {"measurement": "OD600 reading of phage-treated APEC culture", "setting": "host APEC E. coli O6:H31", "value": 0.284}
    ]},
    {"substance": "Escherichia phage vB_Eco_AKA", "values": [
      {"measurement": "phages released from their microcapsules", "setting": "[1]", "value": 94.4, "unit": "%"},
      {"measurement": "concentration of released phages", "setting": "[1]", "value": 7.99, "unit": "log10 PFU/mL"},
      {"measurement": "Pre-encapsulation phage concentration", "setting": "[2]", "value": "8.6 ± 0.2"},
      {"measurement": "Encapsulation efficiency", "setting": "[2]", "value": 98.8, "unit": "%"},
      {"measurement": "Concentration of phages in microcapsules", "setting": "[2]", "value": "8.5 ± 0.1"},
      {"measurement": "degree of lysis", "setting": "[3]", "value": 1.7},
      {"measurement": "concentration of APEC (OD600) versus untreated APEC cultures", "setting": "host APEC E. coli O6:H31; MOI 10, P<0.05", "value": "Significantly lower"},
      {"measurement": "OD600 reading of phage-treated APEC culture", "setting": "host APEC E. coli O6:H31", "value": "did not significantly differ"}
    ]},
    {"substance": "Escherichia phage vB_Eco_MIA", "values": [
      {"measurement": "phages released from their microcapsules", "setting": "[1]", "value": 94.7, "unit": "%"},
      {"measurement": "concentration of released phages", "setting": "[1]", "value": 8.05, "unit": "log10 PFU/mL"},
      {"measurement": "Pre-encapsulation phage concentration", "setting": "[2]", "value": "8.9 ± 0.1"},
      {"measurement": "Encapsulation efficiency", "setting": "[2]", "value": 95.5, "unit": "%"},
      {"measurement": "Concentration of phages in microcapsules", "setting": "[2]", "value": "8.5 ± 0.1"},
      {"measurement": "degree of lysis", "setting": "[3]", "value": 2.3},
      {"measurement": "concentration of APEC (OD600) versus untreated APEC cultures", "setting": "host APEC E. coli O6:H31; MOI 10, P<0.05", "value": "Significantly lower"},
      {"measurement": "OD600 reading of phage-treated APEC culture", "setting": "host APEC E. coli O6:H31", "value": "did not significantly differ"}
    ]},
    {"substance": "Escherichia phage vB_Eco_MP_1 [MP1]", "values": [
      {"measurement": "phages released from their microcapsules", "setting": "[1]", "value": 96.5, "unit": "%"},
      {"measurement": "concentration of released phages", "setting": "[1]", "value": 8.94, "unit": "log10 PFU/mL"},
      {"measurement": "Pre-encapsulation phage concentration", "setting": "[2]", "value": "9.3 ± 0.2"},
      {"measurement": "Encapsulation efficiency", "setting": "[2]", "value": 98.9, "unit": "%"},
      {"measurement": "Concentration of phages in microcapsules", "setting": "[2]", "value": "9.2 ± 0.2"},
      {"measurement": "degree of lysis", "setting": "[3]", "value": 2.7},
      {"measurement": "phage concentration SIF-exposed versus PBS-exposed", "setting": "[4]", "value": "significantly lower"},
      {"measurement": "OD600 reading of phage-treated APEC culture", "setting": "host APEC E. coli O2:H4", "value": 0.101}
    ]},
    {"substance": "Escherichia phage vB_Eco_MP_2 [MP2]", "values": [
      {"measurement": "phages released from their microcapsules", "setting": "[1]", "value": 95.4, "unit": "%"},
      {"measurement": "concentration of released phages", "setting": "[1]", "value": 8.88, "unit": "log10 PFU/mL"},
      {"measurement": "Pre-encapsulation phage concentration", "setting": "[2]", "value": "9.4 ± 0.1"},
      {"measurement": "Encapsulation efficiency", "setting": "[2]", "value": 98.9, "unit": "%"},
      {"measurement": "Concentration of phages in microcapsules", "setting": "[2]", "value": "9.3 ± 0.2"},
      {"measurement": "degree of lysis", "setting": "[3]", "value": 3.0},
      {"measurement": "concentration of APEC host versus APEC cultures incubated without phages", "setting": "host APEC E. coli O2:H4; [5]", "value": "significantly lower"},
      {"measurement": "OD600 reading of phage-treated APEC culture", "setting": "host APEC E. coli O2:H4", "value": 0.328}
    ]}
  ]
}
